Here are results for 3 compounds from US11779585B2 (priority 2020, dated 2023).

One data set deals with 2019-nCoV. Particulars: Wang et al., not in Table 7; cited from earlier work.
The test system of a further data set is MERS-CoV. The note with it: Dyall et al.; cited from earlier work.
For another data set, the system named is SARS-CoV2. The data set is described as follows: microbe, parasite or virus in culture. The data set is classed as cell-based, SARS-CoV-2.
The subject of another data set is SARS-CoV. Particulars: Dyall et al.; cited from earlier work.
A further data set has as its system Vero E6 cells. Particulars: hydrochloride.
The mark [1] stands for this setting: Severe acute respiratory syndrome coronavirus 2, Vero C1008.

SMILES strings stand for the structures. Where “and” joins values, the source holds several entries; their conditions need not be identical. Identical values can stand only once. Like-named read-outs stand apart in the source and are kept apart here.

As a reminder, the IC50 is the concentration that inhibits the measured activity by half. Turning to `CCN(CC)CCCC(C)Nc1ccnc2cc(Cl)ccc12` (stereo not shown) [chloroquine], the 50% inhibitory concentration (IC50) in the data set on 2019-nCoV was 1.13 µM.

As a reminder, the Inhibition is the change of the read-out against control, counted positive when it falls. For orientation: inhibition means the share of the control response that was lost under treatment. A lower inhibition goes with a weak effect. With `CN(C)CCCN1c2ccccc2Sc2ccc(Cl)cc21.Cl` [Chlorpromazine HCl, chlorpromazine HCl, reference compound], the IC50 with MERS-CoV was 9.5 µM; in the data set with SARS-CoV2 (setting [1]), 7.2 µM; in the data set with SARS-CoV, 13 µM. For the same compound, the Inhibition was found to be 100.2% in the data set with SARS-CoV2 (30 µM, HCl) and 100.2% with SARS-CoV2 (60 µM, HCl). The compound further displayed an inhibition at 30 µM in the data set with SARS-CoV2 (setting [1]) of 100%.

In the case of `Cl.NC(=O)c1cn([C@@H]2O[C@H](CO)[C@@H](O)[C@H]2O)c2ncnc(N)c12` [Oya2, 4-amino-7-((2R,3R,4S,5R)-3,4-dihydroxy-5-(hydroxymethyl)tetrahydrofuran-2-yl)-7H-pyrrolo[2,3-d]pyrimidine-5-carboxamide hydrochloride], the Inhibition is 6.759% and 2.316% in the data set on SARS-CoV2 (0.0047 μM, MOI 0.6, Plate 2, hydrochloride); −4.548% and −2.306% and −5.003% in the data set on SARS-CoV2 (0.0047 μM, title MOI 0.6 (text MOI 1.3), Plate 1, hydrochloride); −12.4801% and −9.091% in the data set with SARS-CoV2 (0.0047 μM, title MOI 0.6 (text MOI 1.3), Plate 2, hydrochloride); 22.21% with SARS-CoV2 (0.0094 μM, MOI 0.6, Plate 2, hydrochloride); −4.5066% and −0.5728% and 3.754% in the data set on SARS-CoV2 (0.0094 μM, title MOI 0.6 (text MOI 1.3), Plate 2, hydrochloride); 9.743% and 4.635% in the data set on SARS-CoV2 (0.0188 μM, MOI 0.6, Plate 2, hydrochloride). The Inhibition in the data set on SARS-CoV2 (0.0188 μM, title MOI 0.6 (text MOI 1.3), Plate 1, hydrochloride) was 1.888% and −0.5178% and 4.439%; in the data set with SARS-CoV2 (0.0375 μM, MOI 0.6, Plate 1, hydrochloride), 12.21% and 2.813% and 5.217%; in the data set on SARS-CoV2 (0.0375 μM, MOI 0.6, Plate 2, hydrochloride) it was −1.2509% and −10.9963%; with SARS-CoV2 (0.0375 μM, title MOI 0.6 (text MOI 1.3), Plate 2, hydrochloride), 9.292% and 6.13%; with SARS-CoV2 (0.075 μM, MOI 0.6, Plate 1, hydrochloride), 48.8% and 30.54%; in the data set with SARS-CoV2 (0.075 μM, MOI 0.6, Plate 2, hydrochloride) it was 77.73%. Further, the Inhibition in the data set on SARS-CoV2 (0.15 μM, MOI 0.6, Plate 1, hydrochloride) was 94.81% and 98.18%; with SARS-CoV2 (0.15 μM, MOI 0.6, Plate 2, hydrochloride), 99.76%; in the data set with SARS-CoV2 (0.15 μM, title MOI 0.6 (text MOI 1.3), Plate 1, hydrochloride), 100.5487% and 99.6%; with SARS-CoV2 (0.15 μM, title MOI 0.6 (text MOI 1.3), Plate 2, hydrochloride), 95.57% and 98.32%; in the data set with SARS-CoV2 (0.3 μM, MOI 0.6, Plate 1, hydrochloride), 99.8055%; in the data set with SARS-CoV2 (0.3 μM, MOI 0.6, Plate 2, hydrochloride), 99.76%. The Inhibition in the data set on SARS-CoV2 (0.3 μM, title MOI 0.6 (text MOI 1.3), Plate 1, hydrochloride) is 99.49%; in the data set with SARS-CoV2 (0.3 μM, title MOI 0.6 (text MOI 1.3), Plate 2, hydrochloride), 97.81%; with SARS-CoV2 (0.6 μM, MOI 0.6, Plate 1, hydrochloride) it was 99.76%; in the data set with SARS-CoV2 (0.6 μM, MOI 0.6, Plate 2, hydrochloride) it was 100.0302%. Moreover, the Cytotoxicity with Vero E6 cells (0.0047 μM, MOI 0.6, Plate 1) was −2.54% and −1.465% and −2.751%; with Vero E6 cells (0.0047 μM, MOI 0.6, Plate 2), −2.54% and −1.465% and −2.751%; in the data set with Vero E6 cells (0.0094 μM, MOI 0.6, Plate 1), 0.4496% and −3.731% and −1.047%; in the data set on Vero E6 cells (0.0094 μM, MOI 0.6, Plate 2) it was 0.4496% and −3.731% and −1.047%; in the data set with Vero E6 cells (0.0188 μM, MOI 0.6, Plate 1), −1.946% and −1.045% and −1.4651%; in the data set with Vero E6 cells (0.0188 μM, MOI 0.6, Plate 2), −1.946% and −1.045% and −1.4651%. Further, the Cytotoxicity in the data set with Vero E6 cells (0.075 μM, MOI 0.6, Plate 1) is 16.08% and 19.63% and 18.13%; with Vero E6 cells (0.075 μM, MOI 0.6, Plate 2), 16.08% and 19.63% and 18.13%; in the data set with Vero E6 cells (0.15 μM, MOI 0.6, Plate 1) it was 35.37% and 35.25% and 31.56%; in the data set with Vero E6 cells (0.15 μM, MOI 0.6, Plate 2) it was 35.37% and 35.25% and 31.56%; in the data set with Vero E6 cells (0.3 μM, MOI 0.6, Plate 1), 55.54% and 56.53% and 57.44%; with Vero E6 cells (0.3 μM, MOI 0.6, Plate 2), 55.54% and 56.53% and 57.44%. The Cytotoxicity was 69.74% and 68.71% and 69.51% in the data set on Vero E6 cells (0.6 μM, MOI 0.6, Plate 1); 69.74% and 68.71% and 69.51% in the data set on Vero E6 cells (0.6 μM, MOI 0.6, Plate 2).
